Reference: PubChem BioAssay AID248 (DTP/NCI, 2004)
Where “and” joins values, the source holds several entries; their conditions need not be identical. Identical values can stand only once. Inconclusive results and toxic doses are left out. Cut-off read from the data, not from the text of the source: active = T/C of 150% or more; inactive = T/C below 125%.

Test system: L1210 leukemia ip in BDF1 mice, survival T/C
Assay: NCI In Vivo Anticancer Drug Screen. Data for tumor model L1210 Leukemia (intraperitoneal) in B6D2F1 (BDF1) mice
Details: higher = longer survival
How it was run: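 Transplantable tumor model; survival measured in treated vs vehicle control mice. Value = treated/control.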

[1] = endpoint: mean survival time, dose: 100.0 mg/kg/injection, schedule: Q04DX002 (ip), vehicle: Klucel (hydroxypropylcellulose) (HPC)
[2] = endpoint: mean survival time, dose: 200.0 mg/kg/injection, schedule: Q04DX002 (ip), vehicle: Klucel (hydroxypropylcellulose) (HPC)
[3] = endpoint: mean survival time, dose: 400.0 mg/kg/injection, schedule: Q04DX002 (ip), vehicle: Klucel (hydroxypropylcellulose) (HPC)
[4] = endpoint: mean survival time, dose: 100.0 mg/kg/injection, schedule: Q01DX009 (ip), vehicle: Klucel (hydroxypropylcellulose) (HPC)
[5] = endpoint: mean survival time, dose: 100.0 mg/kg/injection, schedule: Q04DX003 (ip), vehicle: Klucel (hydroxypropylcellulose) (HPC)
[6] = endpoint: mean survival time, dose: 200.0 mg/kg/injection, schedule: Q01DX009 (ip), vehicle: Klucel (hydroxypropylcellulose) (HPC)
[7] = endpoint: mean survival time, dose: 200.0 mg/kg/injection, schedule: Q04DX003 (ip), vehicle: Klucel (hydroxypropylcellulose) (HPC)
[8] = endpoint: mean survival time, dose: 400.0 mg/kg/injection, schedule: Q01DX009 (ip), vehicle: Klucel (hydroxypropylcellulose) (HPC)
[9] = endpoint: mean survival time, dose: 400.0 mg/kg/injection, schedule: Q04DX003 (ip), vehicle: Klucel (hydroxypropylcellulose) (HPC)
[10] = endpoint: mean survival time, dose: 100.0 mg/kg/injection, schedule: Q04DX003 (ip), vehicle: saline with Tween-80
[11] = endpoint: mean survival time, dose: 200.0 mg/kg/injection, schedule: Q04DX003 (ip), vehicle: saline with Tween-80
[12] = endpoint: mean survival time, dose: 100.0 mg/kg/injection, schedule: Q01DX001 (ip), vehicle: saline with Tween-80
[13] = endpoint: mean survival time, dose: 200.0 mg/kg/injection, schedule: Q01DX001 (ip), vehicle: saline with Tween-80
[14] = endpoint: mean survival time, dose: 400.0 mg/kg/injection, schedule: Q01DX001 (ip), vehicle: saline with Tween-80

Measured: T/C

c1ccc(C(N2CCN(c3ccccc3)CC2)N2CCN(c3ccccc3)CC2)cc1
inactive: [1] 94 % of control | [2] 94 % of control | [3] 94 % of control

CCOC(=O)C[n+]1ccccc1Br
inactive: endpoint: mean survival time, dose: 50.0 mg/kg/injection, schedule: Q01DX015 (ip), vehicle: water 90 % of control | endpoint: mean survival time, dose: 100.0 mg/kg/injection, schedule: Q01DX015 (ip), vehicle: water 100 % of control

c1ccc(C2OC2c2ccccc2)cc1 (configuration not stated)
inactive: [4] 98 % of control | [1] 107 % of control | [5] 110 % of control | [6] 102 % of control | [2] 110 % of control | [7] 100 % of control | [8] 104 % of control | [3] 93 % of control | [9] 109 % of control

NS(=O)(=O)c1cc2c(cc1Cl)NCNS2(=O)=O
inactive: endpoint: median survival time, dose: 125.0 mg/kg/injection, schedule: Q12HX016 (oral), vehicle: Klucel (hydroxypropylcellulose) (HPC) 95 % of control | endpoint: median survival time, dose: 125.0 mg/kg/injection, schedule: Q12HX022 (oral), vehicle: Klucel (hydroxypropylcellulose) (HPC) 94 % of control | endpoint: median survival time, dose: 250.0 mg/kg/injection, schedule: Q12HX016 (oral), vehicle: Klucel (hydroxypropylcellulose) (HPC) 93 % of control | endpoint: median survival time, dose: 250.0 mg/kg/injection, schedule: Q12HX022 (oral), vehicle: Klucel (hydroxypropylcellulose) (HPC) 98 % of control | endpoint: median survival time, dose: 500.0 mg/kg/injection, schedule: Q12HX016 (oral), vehicle: Klucel (hydroxypropylcellulose) (HPC) 93 % of control | endpoint: median survival time, dose: 500.0 mg/kg/injection, schedule: Q12HX022 (oral), vehicle: Klucel (hydroxypropylcellulose) (HPC) 98 % of control

COC(=O)c1cc([N+](=O)[O-])ccc1Cl
inactive: endpoint: mean survival time, dose: 100.0 mg/kg/injection, schedule: Q01DX009 (ip), vehicle: saline 87 % of control | endpoint: mean survival time, dose: 100.0 mg/kg/injection, schedule: Q04DX003 (ip), vehicle: saline 98 % of control | endpoint: mean survival time, dose: 200.0 mg/kg/injection, schedule: Q01DX009 (ip), vehicle: saline 95 % of control | endpoint: mean survival time, dose: 200.0 mg/kg/injection, schedule: Q04DX003 (ip), vehicle: saline 97 % of control | endpoint: mean survival time, dose: 400.0 mg/kg/injection, schedule: Q01DX009 (ip), vehicle: saline 101 % of control | endpoint: mean survival time, dose: 400.0 mg/kg/injection, schedule: Q04DX003 (ip), vehicle: saline 95 % of control

CCN(CC)C(=O)C1C2C=CC(C2)C1C(=O)N(CC)CC (configuration not stated)
inactive: [10] 98 % of control | [11] 98 % of control

O=C(O)/C=C(/Oc1ccc(Cl)cc1)C(=O)O
inactive: endpoint: mean survival time, dose: 100.0 mg/kg/injection, schedule: Q04DX002 (ip), vehicle: other 93 % of control | endpoint: mean survival time, dose: 200.0 mg/kg/injection, schedule: Q04DX002 (ip), vehicle: other 103 % of control | endpoint: mean survival time, dose: 400.0 mg/kg/injection, schedule: Q04DX002 (ip), vehicle: other 100 % of control

O=C(O)c1ccccc1C(=O)Nc1ccccc1Cl
inactive: [10] 96 % of control | [11] 102 % of control | endpoint: mean survival time, dose: 400.0 mg/kg/injection, schedule: Q04DX003 (ip), vehicle: saline with Tween-80 102 % of control

O=P(N=P(c1ccccc1)(c1ccccc1)c1ccccc1)(c1ccccc1)c1ccccc1
inactive: endpoint: mean survival time, dose: 100.0 mg/kg/injection, schedule: Q01DX001 (ip), vehicle: saline 97 % of control | endpoint: mean survival time, dose: 200.0 mg/kg/injection, schedule: Q01DX001 (ip), vehicle: saline 97 % of control | endpoint: mean survival time, dose: 400.0 mg/kg/injection, schedule: Q01DX001 (ip), vehicle: saline 97 % of control

CCCCCCCCCCCCCCCC[N+](C)(CCO)Cc1ccccc1 (configuration not stated)
inactive: endpoint: mean survival time, dose: 12.5 mg/kg/injection, schedule: Q04DX002 (ip), vehicle: saline with Tween-80 93 % of control

Cc1ccc(NC(=O)NCc2ccco2)cc1
inactive: endpoint: mean survival time, dose: 222.0 mg/kg/injection, schedule: Q01DX Z (ip), vehicle: methylcellulose (MC) 94 % of control | endpoint: mean survival time, dose: 333.0 mg/kg/injection, schedule: Q01DX Z (ip), vehicle: methylcellulose (MC) 100 % of control | endpoint: mean survival time, dose: 500.0 mg/kg/injection, schedule: Q01DX Z (ip), vehicle: methylcellulose (MC) 94 % of control

OC(c1ccccc1)c1ccncc1 (configuration not stated)
inactive: [12] 103 % of control | [13] 97 % of control | [14] 103 % of control

N=c1ccc2cc3ccc4ccccc4c3n(O)c-2c1
inactive: [12] 113 % of control | [13] 95 % of control | [14] 113 % of control

COc1ccc(C(=O)c2c(C(=O)O)ccc3ccccc23)cc1
inactive: endpoint: mean survival time, dose: 100.0 mg/kg/injection, schedule: Q01DX009 (ip), vehicle: saline with Tween-80 104 % of control | endpoint: mean survival time, dose: 100.0 mg/kg/injection, schedule: Q04DX003 (ip), vehicle: other 101 % of control | endpoint: mean survival time, dose: 200.0 mg/kg/injection, schedule: Q01DX009 (ip), vehicle: saline with Tween-80 95 % of control | endpoint: mean survival time, dose: 200.0 mg/kg/injection, schedule: Q04DX003 (ip), vehicle: other 100 % of control | endpoint: mean survival time, dose: 400.0 mg/kg/injection, schedule: Q01DX009 (ip), vehicle: saline with Tween-80 106 % of control | endpoint: mean survival time, dose: 400.0 mg/kg/injection, schedule: Q04DX003 (ip), vehicle: other 100 % of control

Cc1c(Cl)cccc1NC(=O)COc1ccc(Cl)cc1
inactive: [4] 110 % of control | [5] 93 % of control | [6] 94 % of control | [7] 91 % of control | [8] 95 % of control | [9] 91 % of control

CC(=O)Oc1c2c(n3c1CCC3)CC(C)CC2=O (configuration not stated)
inactive: endpoint: mean survival time, dose: 50.0 mg/kg/injection, schedule: Q04DX002 (ip), vehicle: Klucel (hydroxypropylcellulose) (HPC) 97 % of control | [1] 97 % of control | [2] 102 % of control

COc1ccc2c(c1OC(C)=O)-c1cc(O)cc3c1C(C2)N(C(=O)CN(CCO)CCO)CC3 (configuration not stated)
inactive: endpoint: mean survival time, dose: 25.0 mg/kg/injection, schedule: Q04DX003 (ip), vehicle: DMSO 104 % of control | endpoint: mean survival time, dose: 50.0 mg/kg/injection, schedule: Q04DX003 (ip), vehicle: DMSO 93 % of control | endpoint: mean survival time, dose: 100.0 mg/kg/injection, schedule: Q04DX003 (ip), vehicle: DMSO 89 % of control | endpoint: mean survival time, dose: 200.0 mg/kg/injection, schedule: Q04DX003 (ip), vehicle: DMSO 104 % of control | endpoint: mean survival time, dose: 400.0 mg/kg/injection, schedule: Q04DX003 (ip), vehicle: DMSO 97 % of control

O=C(Nc1cccc(O)c1)Nc1cccc(C(F)(F)F)c1
inactive: endpoint: mean survival time, dose: 100.0 mg/kg/injection, schedule: Q01DX001 (ip), vehicle: carboxymethylcellulose (CMC) 92 % of control and 101 % of control | endpoint: mean survival time, dose: 100.0 mg/kg/injection, schedule: Q01DX009 (ip), vehicle: carboxymethylcellulose (CMC) 94 % of control and 96 % of control | endpoint: mean survival time, dose: 100.0 mg/kg/injection, schedule: Q04DX002 (ip), vehicle: carboxymethylcellulose (CMC) 92 % of control and 93 % of control | endpoint: mean survival time, dose: 100.0 mg/kg/injection, schedule: Q04DX003 (ip), vehicle: carboxymethylcellulose (CMC) 95 % of control and 100 % of control | endpoint: mean survival time, dose: 200.0 mg/kg/injection, schedule: Q01DX001 (ip), vehicle: carboxymethylcellulose (CMC) 96 % of control and 87 % of control | endpoint: mean survival time, dose: 200.0 mg/kg/injection, schedule: Q01DX009 (ip), vehicle: carboxymethylcellulose (CMC) 94 % of control and 100 % of control | endpoint: mean survival time, dose: 200.0 mg/kg/injection, schedule: Q04DX002 (ip), vehicle: carboxymethylcellulose (CMC) 92 % of control and 86 % of control | endpoint: mean survival time, dose: 200.0 mg/kg/injection, schedule: Q04DX003 (ip), vehicle: carboxymethylcellulose (CMC) 92 % of control and 91 % of control | endpoint: mean survival time, dose: 400.0 mg/kg/injection, schedule: Q01DX001 (ip), vehicle: carboxymethylcellulose (CMC) 92 % of control and 93 % of control | endpoint: mean survival time, dose: 400.0 mg/kg/injection, schedule: Q01DX009 (ip), vehicle: carboxymethylcellulose (CMC) 100 % of control and 91 % of control | endpoint: mean survival time, dose: 400.0 mg/kg/injection, schedule: Q04DX002 (ip), vehicle: carboxymethylcellulose (CMC) 95 % of control and 100 % of control | endpoint: mean survival time, dose: 400.0 mg/kg/injection, schedule: Q04DX003 (ip), vehicle: carboxymethylcellulose (CMC) 87 % of control and 91 % of control

O=C(O)/C=C/c1ccc(O)c(O)c1
inactive: endpoint: mean survival time, dose: 100.0 mg/kg/injection, schedule: Q04DX002 (ip), vehicle: gum acacia 92 % of control | endpoint: mean survival time, dose: 200.0 mg/kg/injection, schedule: Q04DX002 (ip), vehicle: gum acacia 92 % of control | endpoint: mean survival time, dose: 400.0 mg/kg/injection, schedule: Q04DX002 (ip), vehicle: gum acacia 95 % of control
